ChEMBL document CHEMBL1132668, “The design of potent and selective inhibitors of thrombin utilizing a piperazinedione template: part 1” (Bioorg Med Chem Lett, 1999)

Columns and labels:
[1] = target: T1, Serine protease 1 (Homo sapiens, UniProt P07477); test: Inhibitory activity against human trypsin
[2] = target: T2, Prothrombin (Homo sapiens, UniProt P00734); test: Binding affinity against thrombin
[3] = target: T2, Prothrombin; test: Inhibitory activity against human thrombin
[4] = target: T1, Serine protease 1; test: Tested for the inhibition of trypsin at a concentration of 100 uM
[5] = target: T1, Serine protease 1; test: Compound was tested for the binding affinity against trypsin

T1 sequence (P07477 whole entry): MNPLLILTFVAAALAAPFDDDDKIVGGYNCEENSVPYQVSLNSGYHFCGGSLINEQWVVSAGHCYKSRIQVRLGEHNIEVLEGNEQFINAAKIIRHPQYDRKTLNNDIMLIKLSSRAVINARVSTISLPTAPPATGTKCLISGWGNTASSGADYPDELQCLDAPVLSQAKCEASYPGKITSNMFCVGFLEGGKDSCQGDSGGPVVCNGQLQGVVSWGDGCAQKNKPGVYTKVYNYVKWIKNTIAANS

Row | Compound | IC50 [1] [nM] | Ki [2] [nM] | IC50 [3] [nM] | inhibition [4] [%] | Ki [5] [nM]
1 | CCCC[C@H]1C(=O)N(CCCc2ccccc2)CC(=O)N1CC(=O)N[C@@H](CC1CCCN(C(=N)N)C1)C(=O)c1nccs1 (stereo partly specified) | 42700 | 98 | 1600 | – | –
2 | N=C(N)N1CCC[C@@H](C[C@H](NC(=O)CN2C(=O)CN(CCCc3ccccc3)C(=O)[C@@H]2Cc2ccccc2)C(=O)c2nccs2)C1 | – | 24 | 240 | 80 | –
3 | N=C(N)N1CCCC(C[C@H](NC(=O)CN2C(=O)CN(CCCc3ccccc3)C(=O)[C@@H]2Cc2ccc(Cl)cc2)C(=O)c2nccs2)C1 (stereo partly specified) | 33400 | 40 | 170 | – | –
4 | N=C(N)N1CCCC(C[C@H](NC(=O)CN2CC(=O)N(CCCc3ccccc3)CC2=O)C(=O)c2nccs2)C1 (stereo partly specified) | 91200 | 495 | 4700 | – | –
5 | N=C(N)N1CCCC(C[C@H](NC(=O)CN2C(=O)CN(CCCc3ccccc3)C(=O)[C@@H]2CCc2ccccc2)C(=O)c2nccs2)C1 (stereo partly specified) | 29000 | 105 | 590 | – | –
6 | N=C(N)N1CCCC(C[C@H](NC(=O)CN2C(=O)CN(CCCc3ccccc3)C(=O)[C@@H]2CC2CCCCC2)C(=O)c2nccs2)C1 (stereo partly specified) | 18500 | 75 | 430 | – | –
7 | N=C(N)N1CCCC(C[C@H](NC(=O)CN2C(=O)CN(Cc3ccccc3)C(=O)[C@@H]2Cc2ccc3ccccc3c2)C(=O)c2nccs2)C1 (stereo partly specified) | 11100 | – | – | – | –
8 | COc1ccc(C[C@H]2C(=O)N(CCCc3ccccc3)CC(=O)N2CC(=O)N[C@@H](CC2CCCN(C(=N)N)C2)C(=O)c2nccs2)cc1 (stereo partly specified) | 3800 | 43 | 350 | – | –
9 | CN1CC(=O)N(CC(=O)N[C@@H](CC2CCCN(C(=N)N)C2)C(=O)c2nccs2)[C@@H](Cc2ccc3ccccc3c2)C1=O (stereo partly specified) | 26600 | 140 | 1270 | – | –
10 | C[C@H]1C(=O)N(CCCc2ccccc2)CC(=O)N1CC(=O)N[C@@H](C[C@@H]1CCCN(C(=N)N)C1)C(=O)c1nccs1 | 24000 | 65 | 760 | – | –

Next, values leading:

Row | IC50 [1] [nM] | Ki [2] [nM] | IC50 [3] [nM] | inhibition [4] [%] | Ki [5] [nM] | Compound
11 | 9700 | – | 750 | – | – | N=C(N)N1CCCC(C[C@H](NC(=O)CN2C(=O)CN(CCCc3ccccc3)C(=O)C2C(c2ccccc2)c2ccccc2)C(=O)c2nccs2)C1 (stereo partly specified)
12 | – | 165 | 4300 | 69 | – | CC(C)C[C@H]1C(=O)N(CCCc2ccccc2)CC(=O)N1CC(=O)N[C@@H](CC1CCCN(C(=N)N)C1)C(=O)c1nccs1 (stereo partly specified)
13 | – | – | 1000 | 40 | – | N=C(N)N1CCCC(C[C@H](NC(=O)CN2C(=O)CN(CCCc3ccccc3)C(=O)[C@@H]2Cc2cccnc2)C(=O)c2nccs2)C1 (stereo partly specified)
14 | 90 | – | 130 | – | – | N=C(N)NCCC[C@H](NC(=O)CN1C(=O)CN(CCCc2ccccc2)C(=O)[C@@H]1Cc1ccccc1)C(=O)c1nccs1
15 | 74800 | – | 1800 | – | – | CC(C)[C@H]1C(=O)N(CCCc2ccccc2)CC(=O)N1CC(=O)N[C@@H](CC1CCCN(C(=N)N)C1)C(=O)c1nccs1 (stereo partly specified)
16 | 27000 | 30 | 45 | – | 13.5 | N=C(N)N1CCCC(C[C@H](NC(=O)CN2C(=O)CN(CCCc3ccccc3)C(=O)[C@@H]2Cc2ccc3ccccc3c2)C(=O)c2nccs2)C1 (stereo partly specified)
17 | – | 200 | 3400 | 67 | – | CCC(C)[C@H]1C(=O)N(CCCc2ccccc2)CC(=O)N1CC(=O)N[C@@H](CC1CCCN(C(=N)N)C1)C(=O)c1nccs1 (stereo partly specified)
